Laboratory results as given in ChEMBL document CHEMBL1201862, “PubChem BioAssay data set” (2004).
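Each compound was tested at five concentrations against cells in 96-well plates for 48 hours. The concentration for 50% growth inhibition is given as GI50.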 Activity calls are given as the source filed them. Rule as the data show it: active = GI50 up to about 1.1 µM and inactive = higher.

Tests used:
Experiment in all cases: NCI-60 cell line screen, 48 h
MDA-MB-231 = test system: MDA-MB-231
SK-MEL-2 = test system: SK-MEL-2
HT-29 = test system: HT-29
HOP-92 = test system: HOP-92
NCI-H23 = test system: NCI-H23
SW-620 = test system: SW-620
M14 = test system: M14
786-0 = test system: 786-0
U-251 = test system: U-251
SK-OV-3 = test system: SK-OV-3
SK-MEL-5 = test system: SK-MEL-5
RXF 393 = test system: RXF 393
Malme-3M = test system: Malme-3M
PC-3 = test system: PC-3
OVCAR-8 = test system: OVCAR-8
CAKI-1 = test system: CAKI-1
A549 = test system: A549
OVCAR-4 = test system: OVCAR-4
UACC-257 = test system: UACC-257
HCC 2998 = test system: HCC 2998

SMILES: O=NC1C(Cl)C2CC1C1C(Br)C(Br)CC21 (stereo unspecified)
- GI50 (MDA-MB-231): > 100 µM (inactive)
- GI50 (SK-MEL-2): > 100 µM (inactive)
- GI50 (HT-29): > 100 µM (inactive)
- GI50 (HOP-92): > 100 µM (inactive)
- GI50 (NCI-H23): > 100 µM (inactive)
- GI50 (SW-620): > 100 µM (inactive)
- GI50 (M14): > 100 µM (inactive)
- GI50 (786-0): > 100 µM (inactive)
- GI50 (U-251): > 100 µM (inactive)
- GI50 (SK-OV-3): > 100 µM (inactive)
- GI50 (SK-MEL-5): > 100 µM (inactive)
- GI50 (RXF 393): > 100 µM (inactive)
- GI50 (Malme-3M): > 100 µM (inactive)
- GI50 (PC-3): > 100 µM (inactive)
- GI50 (OVCAR-8): > 100 µM (inactive)
- GI50 (CAKI-1): > 100 µM (inactive)
- GI50 (A549): > 100 µM (inactive)
- GI50 (OVCAR-4): > 100 µM (inactive)

SMILES: O[C@H]1[C@@H]2OC[C@@H](O)[C@H](OCc3ccccc3)[C@@](COCc3ccccc3)(O2)[C@@H]1OCc1ccccc1
- GI50 (MDA-MB-231): 17 µM (inactive)
- GI50 (SK-MEL-2): 15.2 µM (inactive)
- GI50 (HT-29): 15.2 µM (inactive)
- GI50 (HOP-92): 10.2 µM (inactive)
- GI50 (NCI-H23): 17.1 µM (inactive)
- GI50 (SW-620): 18.5 µM (inactive)
- GI50 (UACC-257): 14.8 µM (inactive)
- GI50 (M14): 17.3 µM (inactive)
- GI50 (786-0): 19.9 µM (inactive)
- GI50 (U-251): 16 µM (inactive)
- GI50 (SK-OV-3): 21.6 µM (inactive)
- GI50 (RXF 393): 20.2 µM (inactive)
- GI50 (Malme-3M): 13.6 µM (inactive)
- GI50 (PC-3): 13.2 µM (inactive)
- GI50 (OVCAR-8): 16.7 µM (inactive)
- GI50 (CAKI-1): < 0.01 µM (active)
- GI50 (A549): 17.1 µM (inactive)
- GI50 (OVCAR-4): 12 µM (inactive)

SMILES: Nc1nc(Nc2ccccc2)sc1C(=O)c1ccco1
- GI50 (MDA-MB-231): 34.7 µM (inactive)
- GI50 (SK-MEL-2): 15.2 µM (inactive)
- GI50 (HT-29): 14.4 µM (inactive)
- GI50 (HOP-92): 35.6 µM (inactive)
- GI50 (NCI-H23): 14.6 µM (inactive)
- GI50 (SW-620): 21.2 µM (inactive)
- GI50 (UACC-257): 30.8 µM (inactive)
- GI50 (M14): 20.9 µM (inactive)
- GI50 (786-0): 12.7 µM (inactive)
- GI50 (U-251): 22.7 µM (inactive)
- GI50 (SK-OV-3): 28.6 µM (inactive)
- GI50 (SK-MEL-5): 11.1 µM (inactive)
- GI50 (RXF 393): 14.2 µM (inactive)
- GI50 (Malme-3M): 26.9 µM (inactive)
- GI50 (PC-3): 22.6 µM (inactive)
- GI50 (A549): 17.1 µM (inactive)
- GI50 (OVCAR-4): 19.9 µM (inactive)

SMILES: C=C=C(C)[Si](C)(C)C
- GI50 (HCC 2998): > 100 µM (inactive)
- GI50 (MDA-MB-231): > 100 µM (inactive)
- GI50 (SK-MEL-2): > 100 µM (inactive)
- GI50 (HT-29): > 100 µM (inactive)
- GI50 (NCI-H23): > 100 µM (inactive)
- GI50 (SW-620): 90.6 µM (inactive)
- GI50 (UACC-257): > 100 µM (inactive)
- GI50 (M14): > 100 µM (inactive)
- GI50 (786-0): > 100 µM (inactive)
- GI50 (U-251): > 100 µM (inactive)
- GI50 (SK-OV-3): > 100 µM (inactive)
- GI50 (SK-MEL-5): > 100 µM (inactive)
- GI50 (RXF 393): > 100 µM (inactive)
- GI50 (Malme-3M): > 100 µM (inactive)
- GI50 (PC-3): > 100 µM (inactive)
- GI50 (OVCAR-8): > 100 µM (inactive)
- GI50 (CAKI-1): > 100 µM (inactive)
- GI50 (A549): > 100 µM (inactive)
- GI50 (OVCAR-4): > 100 µM (inactive)

SMILES: CC(CS(=O)(=O)Cc1ccccc1)C(N)=O (stereo unspecified)
- GI50 (MDA-MB-231): > 100 µM (inactive)
- GI50 (SK-MEL-2): > 100 µM (inactive)
- GI50 (HT-29): > 100 µM (inactive)
- GI50 (HOP-92): > 100 µM (inactive)
- GI50 (NCI-H23): > 100 µM (inactive)
- GI50 (SW-620): > 100 µM (inactive)
- GI50 (UACC-257): > 100 µM (inactive)
- GI50 (M14): > 100 µM (inactive)
- GI50 (786-0): > 100 µM (inactive)
- GI50 (U-251): > 100 µM (inactive)
- GI50 (SK-OV-3): > 100 µM (inactive)
- GI50 (SK-MEL-5): > 100 µM (inactive)
- GI50 (Malme-3M): > 100 µM (inactive)
- GI50 (PC-3): > 100 µM (inactive)
- GI50 (OVCAR-8): > 100 µM (inactive)
- GI50 (CAKI-1): > 100 µM (inactive)
- GI50 (A549): > 100 µM (inactive)
- GI50 (OVCAR-4): > 100 µM (inactive)

SMILES: CS/C(Nc1ccccc1)=C1\C(=O)N(c2ccccc2)N=C1C
- GI50 (HCC 2998): > 100 µM (inactive)
- GI50 (MDA-MB-231): > 100 µM (inactive)
- GI50 (SK-MEL-2): > 100 µM (inactive)
- GI50 (HT-29): > 100 µM (inactive)
- GI50 (NCI-H23): > 100 µM (inactive)
- GI50 (SW-620): > 100 µM (inactive)
- GI50 (UACC-257): > 100 µM (inactive)
- GI50 (M14): > 100 µM (inactive)
- GI50 (786-0): > 100 µM (inactive)
- GI50 (U-251): > 100 µM (inactive)
- GI50 (SK-OV-3): > 100 µM (inactive)
- GI50 (SK-MEL-5): > 100 µM (inactive)
- GI50 (RXF 393): > 100 µM (inactive)
- GI50 (Malme-3M): > 100 µM (inactive)
- GI50 (PC-3): > 100 µM (inactive)
- GI50 (OVCAR-8): > 100 µM (inactive)
- GI50 (CAKI-1): 52 µM (inactive)
- GI50 (A549): > 100 µM (inactive)
- GI50 (OVCAR-4): > 100 µM (inactive)

SMILES: CCOC(=O)Nc1c(C#N)[n+]([O-])c2cc(Cl)c(Cl)cc2[n+]1[O-]
- GI50 (MDA-MB-231): 15.9 µM (inactive)
- GI50 (SK-MEL-2): 17.7 µM (inactive)
- GI50 (HT-29): 12 µM (inactive)
- GI50 (HOP-92): 5.4 µM (inactive)
- GI50 (NCI-H23): 19.7 µM (inactive)
- GI50 (SW-620): 13.1 µM (inactive)
- GI50 (UACC-257): 16.5 µM (inactive)
- GI50 (M14): 16.9 µM (inactive)
- GI50 (786-0): 15.6 µM (inactive)
- GI50 (U-251): 14.3 µM (inactive)
- GI50 (SK-OV-3): 24.2 µM (inactive)
- GI50 (SK-MEL-5): 10.5 µM (inactive)
- GI50 (RXF 393): 15.1 µM (inactive)
- GI50 (Malme-3M): 15.2 µM (inactive)
- GI50 (PC-3): 7.28 µM (inactive)
- GI50 (OVCAR-8): 13.4 µM (inactive)
- GI50 (CAKI-1): 19.4 µM (inactive)
- GI50 (A549): 22 µM (inactive)
- GI50 (OVCAR-4): 15.3 µM (inactive)

SMILES: COC(C)(C)[C@@H]1CCCN1C1=C(C)C(=O)OC1
- GI50 (HCC 2998): > 100 µM (inactive)
- GI50 (MDA-MB-231): > 100 µM (inactive)
- GI50 (SK-MEL-2): > 100 µM (inactive)
- GI50 (NCI-H23): > 100 µM (inactive)
- GI50 (786-0): > 100 µM (inactive)
- GI50 (U-251): > 100 µM (inactive)
- GI50 (SK-OV-3): > 100 µM (inactive)
- GI50 (SK-MEL-5): > 100 µM (inactive)
- GI50 (RXF 393): > 100 µM (inactive)
- GI50 (Malme-3M): > 100 µM (inactive)
- GI50 (PC-3): > 100 µM (inactive)
- GI50 (CAKI-1): > 100 µM (inactive)

SMILES: CC(=O)OCC(OC(C)=O)C(OC(C)=O)C(OC(C)=O)C(C=NN(C(C)=O)S(=O)(=O)c1ccc(/C=C2\NC(=O)N(C)C2=O)cc1)OC(C)=O (stereo unspecified)
- GI50 (HCC 2998): 30.5 µM (inactive)
- GI50 (MDA-MB-231): 36.1 µM (inactive)
- GI50 (SK-MEL-2): 31.5 µM (inactive)
- GI50 (HT-29): 34.9 µM (inactive)
- GI50 (NCI-H23): 34.5 µM (inactive)
- GI50 (SW-620): 34.4 µM (inactive)
- GI50 (UACC-257): 43.9 µM (inactive)
- GI50 (M14): 69.2 µM (inactive)
- GI50 (786-0): 22.1 µM (inactive)
- GI50 (U-251): 32.1 µM (inactive)
- GI50 (SK-OV-3): 48.5 µM (inactive)
- GI50 (SK-MEL-5): 30.1 µM (inactive)
- GI50 (RXF 393): 20.5 µM (inactive)
- GI50 (Malme-3M): 25.5 µM (inactive)
- GI50 (PC-3): 40.1 µM (inactive)
- GI50 (OVCAR-8): 25.6 µM (inactive)
- GI50 (CAKI-1): 40.2 µM (inactive)
- GI50 (A549): 56 µM (inactive)
- GI50 (OVCAR-4): 53.5 µM (inactive)

SMILES: CCOC(=O)/C(C#N)=C/c1ccc(CO)o1
- GI50 (HCC 2998): > 100 µM (inactive)
- GI50 (MDA-MB-231): > 100 µM (inactive)
- GI50 (HT-29): > 100 µM (inactive)
- GI50 (NCI-H23): > 100 µM (inactive)
- GI50 (SW-620): > 100 µM (inactive)
- GI50 (UACC-257): > 100 µM (inactive)
- GI50 (M14): > 100 µM (inactive)
- GI50 (786-0): > 100 µM (inactive)
- GI50 (U-251): > 100 µM (inactive)
- GI50 (SK-OV-3): > 100 µM (inactive)
- GI50 (SK-MEL-5): > 100 µM (inactive)
- GI50 (RXF 393): > 100 µM (inactive)
- GI50 (Malme-3M): > 100 µM (inactive)
- GI50 (PC-3): > 100 µM (inactive)
- GI50 (OVCAR-8): > 100 µM (inactive)
- GI50 (CAKI-1): > 100 µM (inactive)
- GI50 (A549): > 100 µM (inactive)
- GI50 (OVCAR-4): > 100 µM (inactive)

SMILES: O=Cc1ccc(OC[C@H]2COC(=O)N2)cc1
- GI50 (HCC 2998): 56.5 µM (inactive)
- GI50 (MDA-MB-231): > 100 µM (inactive)
- GI50 (SK-MEL-2): > 100 µM (inactive)
- GI50 (HT-29): > 100 µM (inactive)
- GI50 (NCI-H23): > 100 µM (inactive)
- GI50 (SW-620): > 100 µM (inactive)
- GI50 (UACC-257): > 100 µM (inactive)
- GI50 (M14): > 100 µM (inactive)
- GI50 (786-0): > 100 µM (inactive)
- GI50 (U-251): > 100 µM (inactive)
- GI50 (SK-OV-3): > 100 µM (inactive)
- GI50 (SK-MEL-5): > 100 µM (inactive)
- GI50 (RXF 393): > 100 µM (inactive)
- GI50 (Malme-3M): > 100 µM (inactive)
- GI50 (PC-3): > 100 µM (inactive)
- GI50 (OVCAR-8): > 100 µM (inactive)
- GI50 (CAKI-1): > 100 µM (inactive)
- GI50 (A549): 47.9 µM (inactive)
- GI50 (OVCAR-4): > 100 µM (inactive)
